The source of these data is BindingDB's records for doi:10.1080/14756360701536455 (Pcsir Laboratories Complex, 2008).

Test [1] has as its target T1, Seed linoleate 13S-lipoxygenase-1 (Glycine max, UniProt P08170).
T1 sequence (P08170 whole entry): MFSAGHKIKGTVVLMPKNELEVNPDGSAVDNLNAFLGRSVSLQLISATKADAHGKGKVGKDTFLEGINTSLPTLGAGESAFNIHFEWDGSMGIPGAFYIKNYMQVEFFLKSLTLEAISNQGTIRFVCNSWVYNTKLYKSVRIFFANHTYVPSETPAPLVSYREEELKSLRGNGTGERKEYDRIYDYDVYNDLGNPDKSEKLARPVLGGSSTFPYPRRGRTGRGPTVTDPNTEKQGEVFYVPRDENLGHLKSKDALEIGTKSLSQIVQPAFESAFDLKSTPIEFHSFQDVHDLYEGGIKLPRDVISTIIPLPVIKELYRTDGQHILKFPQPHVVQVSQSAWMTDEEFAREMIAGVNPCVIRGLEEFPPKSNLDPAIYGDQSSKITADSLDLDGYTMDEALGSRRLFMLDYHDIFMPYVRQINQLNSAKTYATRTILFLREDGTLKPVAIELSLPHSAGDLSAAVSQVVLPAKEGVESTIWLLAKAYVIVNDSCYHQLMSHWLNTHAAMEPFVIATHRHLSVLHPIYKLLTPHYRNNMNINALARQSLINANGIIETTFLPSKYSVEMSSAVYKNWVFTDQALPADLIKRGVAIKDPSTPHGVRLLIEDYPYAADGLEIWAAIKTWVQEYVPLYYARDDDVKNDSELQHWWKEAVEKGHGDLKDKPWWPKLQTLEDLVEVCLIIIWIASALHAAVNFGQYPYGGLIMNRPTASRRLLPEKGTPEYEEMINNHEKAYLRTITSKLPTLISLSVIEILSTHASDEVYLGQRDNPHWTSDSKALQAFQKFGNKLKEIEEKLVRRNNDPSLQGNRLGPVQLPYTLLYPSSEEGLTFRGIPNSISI
Put plainly: Lipoxygenase Inhibition Assay. To be noted: pH 8; 25 °C. The method, then: LOX inhibiting activity was measured by modifying the spectrophotometric method developed by Tappel.

The target in test [2] is Carboxylic ester hydrolase (Equus caballus, UniProt Q9N1N9). Put plainly: Cholinesterase Inhibition Assay. The following applies: pH 8; 25 °C. The method, then:
Butyrylcholinesterase activity-inhibiting activities were measured by a slightly modified spectrophotometric method developed by Ellman. DTNB was used for the measurement of cholinesterase activity and butyrylthiocholine chloride was used as a substrate.

Carboxylic ester hydrolase, sequence (Q9N1N9 whole entry): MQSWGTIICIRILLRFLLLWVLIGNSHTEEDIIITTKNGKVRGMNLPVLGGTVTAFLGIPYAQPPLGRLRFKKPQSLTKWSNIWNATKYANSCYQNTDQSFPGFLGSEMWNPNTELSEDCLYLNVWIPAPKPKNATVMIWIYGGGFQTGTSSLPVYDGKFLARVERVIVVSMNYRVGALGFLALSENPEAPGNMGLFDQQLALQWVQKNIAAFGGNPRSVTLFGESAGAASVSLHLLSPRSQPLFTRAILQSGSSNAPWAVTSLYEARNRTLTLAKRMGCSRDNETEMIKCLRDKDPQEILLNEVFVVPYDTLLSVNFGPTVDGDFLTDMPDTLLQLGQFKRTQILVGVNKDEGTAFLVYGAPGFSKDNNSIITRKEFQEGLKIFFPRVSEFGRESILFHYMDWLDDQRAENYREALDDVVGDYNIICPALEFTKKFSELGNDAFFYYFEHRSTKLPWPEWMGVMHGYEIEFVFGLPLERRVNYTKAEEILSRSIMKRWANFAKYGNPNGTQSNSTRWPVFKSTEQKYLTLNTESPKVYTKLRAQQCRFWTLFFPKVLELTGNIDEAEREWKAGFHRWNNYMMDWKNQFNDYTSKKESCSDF

Consider `C=CC(CC(=NOS(=O)(=O)O)SC1OC(CO)C(O)C(O)C1O)OC(=O)CC1(O)C(=O)Nc2ccccc21` (stereo not drawn) [3'-Hydroxyepiglucoisatisin, 3], for which the IC50 in test [1] was determined as 30.6 µM; in test [2], 16.3 µM. For `O=C(O)CC(=O)OCC1OC(Oc2c[nH]c3ccccc23)C(O)C(=O)C1O` (stereo not drawn) [Isatan A, 5] the same measures were 49.3 µM and 43.4 µM. For `O=C1C(O)C(CO)OC(Oc2c[nH]c3ccccc23)C1O` (stereo not drawn) [Isatan B, 6] the same measures were 53.8 µM and 47.6 µM. The molecule `COc1ccc2c3c1O[C@H]1C[C@@H](O)C=C(CN(C)C2)[C@H]31` [Galanthamine, 7] gave an IC50 in test [2] of 8.5 µM. This lies in the single-digit micromolar range. On to `N#CC(=C1Nc2ccccc2C1=O)c1c[nH]c2ccccc12` [2-[Cyano(3-indolyl)methylene]-3-indolone, 1], for which the 50% inhibitory concentration (IC50) in test [1] is 39.1 µM; in test [2] it was 23.5 µM. For the molecule `C=CC(CC(=NOS(=O)(=O)O)SC1OC(CO)C(O)C(O)C1O)OC(=O)CC1C(=O)Nc2ccccc21` (stereo not drawn) [Epiglucoisatisin, 2], the IC50 in test [1] is 33.7 µM; in test [2], 19.7 µM. The matching figures for `O=S(=O)(O)ON=C(Cc1cc2ccccc2n1S(=O)(=O)O)SC1OC(CO)C(O)C(O)C1O` (stereo not drawn) [Sulfoglucobrassicin, 4]: 41.9 µM and 24.8 µM.

For orientation: IC50 means the midpoint of a concentration-inhibition curve. Low values mean greater potency in that assay, high ones weaker potency in that assay.
